ChEMBL document CHEMBL1201862, “PubChem BioAssay data set” (2004)
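How tested: cells in 96-well plates exposed to compound for 48 hours at five concentrations. GI50: concentration for 50% inhibition of growth.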 The source made the active and inactive calls. Cut-off read from the data, not from the text of the source: active = GI50 up to about 1.1 µM and inactive = higher.

Columns and labels:
Assay in all cases: NCI tumour cell line growth inhibition, 48 h
UO-31 = tested on: UO-31
ACHN = tested on: ACHN
NCI-H23 = tested on: NCI-H23
HT-29 = tested on: HT-29
SK-OV-3 = tested on: SK-OV-3
UACC-257 = tested on: UACC-257
PC-3 = tested on: PC-3
CCRF-CEM = tested on: CCRF-CEM
Malme-3M = tested on: Malme-3M
EKVX = tested on: EKVX
LOX IMVI = tested on: LOX IMVI
OVCAR-5 = tested on: OVCAR-5
SN12C = tested on: SN12C
SF-268 = tested on: SF-268
OVCAR-3 = tested on: OVCAR-3
SW-620 = tested on: SW-620
NCI-H522 = tested on: NCI-H522
DU-145 = tested on: DU-145
HOP-92 = tested on: HOP-92
SNB-19 = tested on: SNB-19
MDA-MB-435 = tested on: MDA-MB-435
SK-MEL-2 = tested on: SK-MEL-2
KM12 = tested on: KM12
RPMI-8226 = tested on: RPMI-8226
SR = tested on: SR
SF-295 = tested on: SF-295
SK-MEL-5 = tested on: SK-MEL-5
U-251 = tested on: U-251
BT-549 = tested on: BT-549
HCC 2998 = tested on: HCC 2998
A498 = tested on: A498
MOLT-4 = tested on: MOLT-4
COLO 205 = tested on: COLO 205
UACC-62 = tested on: UACC-62
OVCAR-4 = tested on: OVCAR-4
IGROV-1 = tested on: IGROV-1
MDA-N = tested on: MDA-N
HCT-15 = tested on: HCT-15
786-0 = tested on: 786-0
RXF 393 = tested on: RXF 393
HOP-62 = tested on: HOP-62
SK-MEL-28 = tested on: SK-MEL-28
M14 = tested on: M14
CAKI-1 = tested on: CAKI-1
MCF7 = tested on: MCF7
A549 = tested on: A549
Hs-578T = tested on: Hs-578T
OVCAR-8 = tested on: OVCAR-8
NCI-H226 = tested on: NCI-H226
HCT-116 = tested on: HCT-116
SF-539 = tested on: SF-539
T47D = tested on: T47D
NCI-H460 = tested on: NCI-H460
MDA-MB-231 = tested on: MDA-MB-231
SNB-75 = tested on: SNB-75
NCI/ADR-RES = tested on: NCI/ADR-RES
K562 = tested on: K562
TK-10 = tested on: TK-10

For COc1ccc2c(-c3ccc(OCCN(C)C)cc3)c(Oc3ccc(Cl)cc3)c(=O)oc2c1, the GI50 (UO-31) was 3.28 µM (inactive), the GI50 (ACHN) was 7.23 µM (inactive) and the GI50 (NCI-H23) was 14.5 µM (inactive). For the same compound, the GI50 (HT-29) was 6.56 µM (inactive), the GI50 (SK-OV-3) was 7.4 µM (inactive) and the GI50 (UACC-257) was 2.05 µM (inactive). The GI50 (PC-3) was 4.98 µM (inactive), the GI50 (CCRF-CEM) was 4.42 µM (inactive) and the GI50 (Malme-3M) was 1.74 µM (inactive). The GI50 (EKVX) was 11.5 µM (inactive), the GI50 (LOX IMVI) was 2.19 µM (inactive) and the GI50 (OVCAR-5) was 15.6 µM (inactive). For the same compound, the GI50 (SN12C) was 20.2 µM (inactive), the GI50 (SF-268) was 7.76 µM (inactive) and the GI50 (OVCAR-3) was 6.17 µM (inactive). The GI50 (SW-620) was 5.41 µM (inactive), the GI50 (NCI-H522) was 4.07 µM (inactive) and the GI50 (DU-145) was 13.7 µM (inactive). For the same compound, the GI50 (HOP-92) was 5.5 µM (inactive), the GI50 (SNB-19) was 8.02 µM (inactive) and the GI50 (MDA-MB-435) was 2.85 µM (inactive). For the same compound, the GI50 (SK-MEL-2) was 5 µM (inactive), the GI50 (KM12) was 3.66 µM (inactive) and the GI50 (RPMI-8226) was 4.05 µM (inactive). For the same compound, the GI50 (SR) was 2 µM (inactive), the GI50 (SF-295) was 2.12 µM (inactive) and the GI50 (SK-MEL-5) was 1.64 µM (inactive). The GI50 (U-251) was 3.4 µM (inactive), the GI50 (BT-549) was 14.7 µM (inactive) and the GI50 (HCC 2998) was 2.83 µM (inactive). For the same compound, the GI50 (A498) was 14 µM (inactive), the GI50 (MOLT-4) was 2.13 µM (inactive) and the GI50 (COLO 205) was 2.23 µM (inactive). For the same compound, the GI50 (UACC-62) was 2.75 µM (inactive), the GI50 (OVCAR-4) was 20 µM (inactive) and the GI50 (IGROV-1) was 3.37 µM (inactive). The GI50 (MDA-N) was 2.06 µM (inactive), the GI50 (HCT-15) was 3.35 µM and the GI50 (786-0) was 2.59 µM (inactive). The GI50 (RXF 393) was 4.18 µM (inactive), the GI50 (HOP-62) was 4.21 µM (inactive) and the GI50 (SK-MEL-28) was 1.82 µM (inactive). The GI50 (M14) was 1.74 µM (inactive), the GI50 (CAKI-1) was 11.1 µM (inactive) and the GI50 (MCF7) was 2.52 µM (inactive). The GI50 (A549) was 4.48 µM (inactive), the GI50 (Hs-578T) was 6.01 µM (inactive) and the GI50 (OVCAR-8) was 8.36 µM (inactive). The GI50 (NCI-H226) was 23.9 µM (inactive), the GI50 (HCT-116) was 2.63 µM (inactive) and the GI50 (SF-539) was 3.74 µM (inactive). The GI50 (T47D) was > 20.4 µM (inactive), the GI50 (NCI-H460) was 5.58 µM (inactive) and the GI50 (MDA-MB-231) was 6.79 µM (inactive). For the same compound, the GI50 (SNB-75) was 7.19 µM (inactive), the GI50 (NCI/ADR-RES) was 9.16 µM (inactive) and the GI50 (K562) was 2.54 µM (inactive). For the same compound, the GI50 (TK-10) was 7.82 µM (inactive).

For CSc1n[nH]c2[nH]nc(C)c12, the GI50 (UO-31) was > 100 µM (inactive), the GI50 (ACHN) was > 100 µM (inactive) and the GI50 (NCI-H23) was > 100 µM (inactive). For the same compound, the GI50 (HT-29) was > 100 µM (inactive), the GI50 (SK-OV-3) was > 100 µM (inactive) and the GI50 (UACC-257) was > 100 µM (inactive). For the same compound, the GI50 (PC-3) was > 100 µM (inactive), the GI50 (CCRF-CEM) was > 100 µM (inactive) and the GI50 (Malme-3M) was > 100 µM (inactive). For the same compound, the GI50 (EKVX) was > 100 µM (inactive), the GI50 (LOX IMVI) was > 100 µM (inactive) and the GI50 (OVCAR-5) was > 100 µM (inactive). For the same compound, the GI50 (SN12C) was > 100 µM (inactive), the GI50 (SF-268) was > 100 µM (inactive) and the GI50 (OVCAR-3) was > 100 µM (inactive). For the same compound, the GI50 (SW-620) was > 100 µM (inactive), the GI50 (NCI-H522) was > 100 µM (inactive) and the GI50 (DU-145) was > 100 µM (inactive). For the same compound, the GI50 (HOP-92) was > 100 µM (inactive), the GI50 (SNB-19) was > 100 µM (inactive) and the GI50 (MDA-MB-435) was > 100 µM (inactive). The GI50 (SK-MEL-2) was > 100 µM (inactive), the GI50 (KM12) was > 100 µM (inactive) and the GI50 (RPMI-8226) was > 100 µM (inactive). The GI50 (SR) was 5.22 µM (inactive), the GI50 (SF-295) was > 100 µM (inactive) and the GI50 (SK-MEL-5) was > 100 µM (inactive). For the same compound, the GI50 (U-251) was > 100 µM (inactive), the GI50 (BT-549) was > 100 µM (inactive) and the GI50 (HCC 2998) was > 100 µM (inactive). The GI50 (A498) was > 100 µM (inactive), the GI50 (MOLT-4) was 8.53 µM (inactive) and the GI50 (COLO 205) was > 100 µM (inactive). The GI50 (UACC-62) was > 100 µM (inactive), the GI50 (OVCAR-4) was > 100 µM (inactive) and the GI50 (IGROV-1) was > 100 µM (inactive). The GI50 (MDA-N) was > 100 µM (inactive), the GI50 (HCT-15) was > 100 µM and the GI50 (786-0) was > 100 µM (inactive). For the same compound, the GI50 (RXF 393) was > 100 µM (inactive), the GI50 (HOP-62) was > 100 µM (inactive) and the GI50 (SK-MEL-28) was > 100 µM (inactive). The GI50 (M14) was > 100 µM (inactive), the GI50 (CAKI-1) was > 100 µM (inactive) and the GI50 (MCF7) was > 100 µM (inactive). For the same compound, the GI50 (A549) was > 100 µM (inactive), the GI50 (Hs-578T) was > 100 µM (inactive) and the GI50 (OVCAR-8) was > 100 µM (inactive). The GI50 (NCI-H226) was > 100 µM (inactive), the GI50 (HCT-116) was > 100 µM (inactive) and the GI50 (SF-539) was > 100 µM (inactive). For the same compound, the GI50 (T47D) was > 100 µM (inactive), the GI50 (NCI-H460) was > 100 µM (inactive) and the GI50 (MDA-MB-231) was > 100 µM (inactive). For the same compound, the GI50 (SNB-75) was > 100 µM (inactive), the GI50 (NCI/ADR-RES) was > 100 µM (inactive) and the GI50 (K562) was > 74 µM (inactive). For the same compound, the GI50 (TK-10) was > 100 µM (inactive).

For CNC(=O)OCC1=C(COC(=O)NC)CN(c2ccccc2)C1, the GI50 (UO-31) was > 100 µM (inactive), the GI50 (ACHN) was > 100 µM (inactive) and the GI50 (NCI-H23) was > 100 µM (inactive). The GI50 (HT-29) was > 100 µM (inactive), the GI50 (SK-OV-3) was > 100 µM (inactive) and the GI50 (UACC-257) was > 100 µM (inactive). For the same compound, the GI50 (PC-3) was > 100 µM (inactive), the GI50 (CCRF-CEM) was > 100 µM (inactive) and the GI50 (Malme-3M) was > 100 µM (inactive). For the same compound, the GI50 (EKVX) was > 100 µM (inactive), the GI50 (LOX IMVI) was > 100 µM (inactive) and the GI50 (OVCAR-5) was > 100 µM (inactive). For the same compound, the GI50 (SN12C) was > 100 µM (inactive), the GI50 (SF-268) was > 100 µM (inactive) and the GI50 (OVCAR-3) was > 100 µM (inactive). The GI50 (SW-620) was > 100 µM (inactive), the GI50 (DU-145) was > 100 µM (inactive) and the GI50 (HOP-92) was > 100 µM (inactive). For the same compound, the GI50 (SNB-19) was > 100 µM (inactive), the GI50 (MDA-MB-435) was > 100 µM (inactive) and the GI50 (SK-MEL-2) was > 100 µM (inactive). The GI50 (KM12) was > 100 µM (inactive), the GI50 (RPMI-8226) was > 100 µM (inactive) and the GI50 (SR) was > 100 µM (inactive). The GI50 (SF-295) was > 100 µM (inactive), the GI50 (SK-MEL-5) was > 100 µM (inactive) and the GI50 (U-251) was > 100 µM (inactive). For the same compound, the GI50 (BT-549) was > 100 µM (inactive), the GI50 (HCC 2998) was > 100 µM (inactive) and the GI50 (A498) was > 100 µM (inactive). For the same compound, the GI50 (MOLT-4) was > 100 µM (inactive), the GI50 (COLO 205) was > 100 µM (inactive) and the GI50 (UACC-62) was > 100 µM (inactive). For the same compound, the GI50 (OVCAR-4) was > 100 µM (inactive), the GI50 (IGROV-1) was > 100 µM (inactive) and the GI50 (MDA-N) was > 100 µM (inactive). For the same compound, the GI50 (HCT-15) was > 100 µM, the GI50 (786-0) was > 100 µM (inactive) and the GI50 (RXF 393) was > 100 µM (inactive). The GI50 (HOP-62) was > 100 µM (inactive), the GI50 (SK-MEL-28) was > 100 µM (inactive) and the GI50 (M14) was > 100 µM (inactive). For the same compound, the GI50 (MCF7) was > 100 µM (inactive), the GI50 (A549) was > 100 µM (inactive) and the GI50 (Hs-578T) was > 100 µM (inactive). The GI50 (OVCAR-8) was > 100 µM (inactive), the GI50 (NCI-H226) was > 100 µM (inactive) and the GI50 (HCT-116) was > 100 µM (inactive). For the same compound, the GI50 (SF-539) was > 100 µM (inactive), the GI50 (T47D) was > 100 µM (inactive) and the GI50 (NCI-H460) was > 100 µM (inactive). The GI50 (MDA-MB-231) was > 100 µM (inactive), the GI50 (SNB-75) was > 100 µM (inactive) and the GI50 (NCI/ADR-RES) was > 100 µM (inactive). For the same compound, the GI50 (K562) was > 100 µM (inactive) and the GI50 (TK-10) was > 100 µM (inactive).
